Measurements reported in patent US9078712B2, “Preformed drug-eluting device to be affixed to an anterior spinal plate” (Warsaw Orthopedic, Inc., priority 2009, dated 2015).

Assay: Effect of autoclave sterilization on final drug concentration in silicone (FIG. 11)
Assay type: physicochemical
Conditions: starting concentration about 0.0738 wt %, autoclave about 30 minutes
Description: FIG. 11 illustrates the effect of sterilization on the final drug concentration, showing the degradation rate versus autoclave time, for example, with a starting concentration of about 0.0738 wt % rifampin in the silicone and running the autoclave about 30 minutes will result in a final concentration of about 0.054 wt % rifampin in the silicone sleeve.
The term “weight percent” or “wt %” means the ratio of the drug weight to the weight of the biocompatible matrix, e.g., the silicone after sterilization, for example, an initial concentration of rifampin of about 0.0738 wt % with about a 30 minute autoclave time will result in a final wt % of about 0.054 in the sterilized product.

Compound: CO[C@H]1/C=C/O[C@@]2(C)Oc3c(C)c(O)c4c(O)c(c(/C=N/N5CCN(C)CC5)c(O)c4c3C2=O)NC(=O)/C(C)=C\C=C\[C@H](C)[C@H](O)[C@@H](C)[C@@H](O)[C@@H](C)[C@H](OC(C)=O)[C@@H]1C [rifampin]
- final concentration of rifampin in the silicone after autoclave sterilization: about 0.054 wt %
